Assay results as given in patent publication US20250115597A1, “TYK2 INHIBITORS AND COMPOSITIONS AND METHODS THEREOF” (LYNK PHARMACEUTICALS CO. LTD., priority 2021, published 2025).
Where two headings read alike, the source gives them in different places.

What was measured:
[1] = target: T1, Ba/F3-FL-TYK2-P760L cells (Homo sapiens, UniProt P29597, P760L, cells depend on it); experiment: Anti-proliferative assay, Ba/F3-FL-TYK2-P760L cells (Cell-Titer Glo); assay type: cell-based; settings: 72 h, read-out: BaF3-FL-T2P760L IC50
T1 construct: BaF3-FL-T2P760L (nM)
Method in brief: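 Ba/F3 cells made IL-3-independent by TEL-fused or full-length mutant JAK-family kinases, seeded at 2000/well and dosed after 24 h with 9 three-fold dilutions topping at 20 μM. Viability after 72 h at 37 °C, 5% CO2 by Cell-Titer Glo ATP luminescence.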

[2] = Microsomal metabolic stability assay; assay type: in vitro ADME; settings: pH 7.4, 0.5 mg/mL protein, 1 μM compound
Procedure: Microsomal Metabolic Stability Assay
Microsomes were pre-incubated with test compound or control compounds for 5 min at 37° C. in 100 mM potassium phosphate buffer, pH 7.4, 1.0 mM EDTA. The reaction was initiated by addition of 15 μL of the NADPH regenerating system to 30 μL of each incubation mixture per time point. The final incubation condition was composed of 0.5 mg/mL microsomal protein, 1 μM test article/positive control, 2 mM NADPH. The 0-minute samples were prepared by addition of a 30 μL aliquot of each incubation mixture to 135 μL quench reagent to precipitate proteins. And then a 15 μL aliquot of the NADPH regenerating system was added. At 5, 15, 30 and 45 minutes, the reaction will be stopped by the addition of cold acetonitrile solution containing internal standard. The samples taken at all time points were centrifuged at 5000×g for 15 minutes. 50 μL of supernatant are taken into 96-well assay plates pre-added with 50 μL ultrapure water, and then analyzed by LC/MS/MS.
Concentrations of test articles, control compounds in the samples were determined by using LC/MS/MS method. Plotting of the chromatograms and peak area integrations are carried out by Analyst (AB Sciex).
n the determination of the in vitro elimination constant (ke) of the control compounds, the analyte/internal standard peak area ratios will be converted to percentage remaining (% Remaining) with the following equation: […]
The slope was measured by the natural logarithm of the percentage of the residual compound and time, T1/2 was calculated according to the following formula.

[3] = human liver microsomes, read-out: Human LM Clint
[4] = human liver microsomes, read-out: Human LM T½
[5] = rat liver microsomes, read-out: Rat LM Clint
[6] = rat liver microsomes, read-out: Rat LM T½

T1 sequence (P29597 whole entry P760L): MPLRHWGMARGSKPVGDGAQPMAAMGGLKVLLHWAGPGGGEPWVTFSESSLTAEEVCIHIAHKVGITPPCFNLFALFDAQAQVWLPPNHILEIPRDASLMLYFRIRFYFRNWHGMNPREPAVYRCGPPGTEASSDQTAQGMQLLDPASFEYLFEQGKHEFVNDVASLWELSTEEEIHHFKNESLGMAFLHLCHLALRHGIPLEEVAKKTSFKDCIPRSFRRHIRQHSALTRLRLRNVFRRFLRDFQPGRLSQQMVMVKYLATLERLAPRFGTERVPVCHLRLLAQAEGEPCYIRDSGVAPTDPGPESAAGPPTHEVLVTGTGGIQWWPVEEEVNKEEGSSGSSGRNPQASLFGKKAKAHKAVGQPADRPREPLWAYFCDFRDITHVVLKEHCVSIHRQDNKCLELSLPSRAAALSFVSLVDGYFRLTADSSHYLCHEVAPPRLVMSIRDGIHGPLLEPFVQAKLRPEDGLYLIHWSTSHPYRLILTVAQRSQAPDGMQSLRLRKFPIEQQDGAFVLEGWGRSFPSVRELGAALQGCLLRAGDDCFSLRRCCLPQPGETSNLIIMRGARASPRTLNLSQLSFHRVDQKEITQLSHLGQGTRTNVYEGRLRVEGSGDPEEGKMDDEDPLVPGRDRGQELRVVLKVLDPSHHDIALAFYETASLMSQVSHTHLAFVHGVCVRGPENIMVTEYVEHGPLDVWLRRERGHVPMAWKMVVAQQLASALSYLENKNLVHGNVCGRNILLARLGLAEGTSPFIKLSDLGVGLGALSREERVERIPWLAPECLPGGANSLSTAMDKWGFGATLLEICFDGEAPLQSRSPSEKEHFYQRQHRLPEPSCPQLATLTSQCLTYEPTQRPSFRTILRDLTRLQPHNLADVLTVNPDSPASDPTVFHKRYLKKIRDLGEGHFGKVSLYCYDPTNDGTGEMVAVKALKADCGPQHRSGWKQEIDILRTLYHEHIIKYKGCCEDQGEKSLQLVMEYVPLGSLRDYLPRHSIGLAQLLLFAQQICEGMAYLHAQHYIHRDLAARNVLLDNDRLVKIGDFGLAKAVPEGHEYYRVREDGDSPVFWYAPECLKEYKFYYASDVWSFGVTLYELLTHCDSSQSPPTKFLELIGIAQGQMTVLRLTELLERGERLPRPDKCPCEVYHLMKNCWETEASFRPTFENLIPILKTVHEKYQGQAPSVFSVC

Row | Compound | GI50 [1] | further results
1 | CNC(=O)c1cnc(Nc2ccc(F)cn2)cc1Nc1cn(C)c2ccn(C)c(=O)c12 [Example 11, 4-((1,5-Dimethyl-4-oxo-4,5-dihydro-1H-pyrrolo[3,2-c]pyridin-3-yl)amino)-6-((5-fluoropyridin-2-yl)amino)-N-methylnicotinamide] | 124 nM | microsomal CLint at 1 μM [2, 3]: 74 µL/min/mg; half-life at 1 μM [2, 4]: 18.7 min; microsomal CLint at 1 μM [2, 5]: 30.6 µL/min/mg; half-life at 1 μM [2, 6]: 45.3 min
2 | CNC(=O)c1cnc(NC(=O)C2CC2)cc1Nc1cn(C)c2ccn(C)c(=O)c12 [Example 12, 6-(Cyclopropanecarboxamido)-4-((1,5-dimethyl-4-oxo-4,5-dihydro-1H-pyrrolo[3,2-c]pyridin-3-yl)amino)-N-methylnicotinamide] | 416 nM | microsomal CLint at 1 μM [2, 3]: 25.8 µL/min/mg; half-life at 1 μM [2, 4]: 53.7 min; microsomal CLint at 1 μM [2, 5]: 16.4 µL/min/mg; half-life at 1 μM [2, 6]: 84.5 min
3 | [2H]C([2H])([2H])NC(=O)c1cnc(NC(=O)C2CC2)cc1Nc1csc2c(Cl)cn(CC(F)(F)F)c(=O)c12 [Example 176, 4-((7-Chloro-4-oxo-5-(2,2,2-trifluoroethyl)-4,5-dihydrothieno[3,2-c]pyridin-3-yl)amino)-6-(cyclopropanecarboxamido)-N-(methyl-d3)nicotinamide] | 183 nM | 
4 | [2H]C([2H])([2H])NC(=O)c1cnc(NC(=O)C2CC2)cc1Nc1csc2c(F)cn(C)c(=O)c12 [Example 177, 6-(Cyclopropanecarboxamido)-4-((7-fluoro-5-methyl-4-oxo-4,5-dihydrothieno[3,2-c]pyridin-3-yl)amino)-N-(methyl-d3)nicotinamide] | 91 nM | 
5 | CCn1ncc2scc(Nc3cc(NC(=O)C4CC4)ncc3C(=O)OC)c2c1=O [Example 178, Methyl 6-(cyclopropanecarboxamido)-4-((5-ethyl-4-oxo-4,5-dihydrothieno[2,3-d]pyridazin-3-yl)amino)nicotinate] | 287 nM | 
6 | [2H]C([2H])([2H])NC(=O)c1cnc(NC(=O)C2CC2)cc1Nc1csc2cnn(CCOC)c(=O)c12 [Example 179, 6-(Cyclopropanecarboxamido)-4-((5-(2-methoxyethyl)-4-oxo-4,5-dihydrothieno[2,3-d]pyridazin-3-yl)amino)-N-(methyl-d3)nicotinamide] | > 5000 nM | 
7 | [2H]C([2H])([2H])NC(=O)c1cnc(NC(=O)C2CC2)cc1Nc1csc2cnn(C(C)CC)c(=O)c12 (stereo not drawn) [Example 180, 4-((5-(Sec-butyl)-4-oxo-4,5-dihydrothieno[2,3-d]pyridazin-3-yl)amino)-6-(cyclopropanecarboxamido)-N-(methyl-d3)nicotinamide] | 1350 nM | 
8 | [2H]C([2H])([2H])NC(=O)c1cnc(NC(=O)C2CC2)cc1Nc1csc2cnn(CC(C)OC)c(=O)c12 (stereo not drawn) [Example 181, 6-(Cyclopropanecarboxamido)-4-((5-(2-methoxypropyl)-4-oxo-4,5-dihydrothieno[2,3-d]pyridazin-3-yl)amino)-N-(methyl-d3)nicotinamide] | 1900 nM | 
9 | [2H]C([2H])([2H])NC(=O)c1cnc(NC(=O)C2CC2)cc1Nc1csc2cnn(C(C)COC)c(=O)c12 (stereo not drawn) [Example 182, 6-(Cyclopropanecarboxamido)-4-((5-(1-methoxypropan-2-yl)-4-oxo-4,5-dihydrothieno[2,3-d]pyridazin-3-yl)amino)-N-(methyl-d3)nicotinamide] | 491 nM | 
10 | [2H]C([2H])([2H])NC(=O)c1cnc(NC(=O)C2CC2)cc1Nc1csc2cnn(CCOCC)c(=O)c12 [Example 183, 6-(Cyclopropanecarboxamido)-4-((5-(2-ethoxyethyl)-4-oxo-4,5-dihydrothieno[2,3-d]pyridazin-3-yl)amino)-N-(methyl-d3)nicotinamide] | 710 nM | 
11 | COC(=O)c1cnc(NC(=O)C2CC2)cc1Nc1csc2c(C#N)cn(C)c(=O)c12 [Example 186, Methyl 4-((7-cyano-5-methyl-4-oxo-4,5-dihydrothieno[3,2-c]pyridin-3-yl)amino)-6-(cyclopropanecarboxamido)nicotinate] | 309 nM | 
12 | [2H]C([2H])([2H])NC(=O)c1cnc(NC(=O)C2CC2)cc1Nc1csc2c(C)nn(CC)c(=O)c12 [Example 187, 6-(Cyclopropanecarboxamido)-4-((5-ethyl-7-methyl-4-oxo-4,5-dihydrothieno[2,3-d]pyridazin-3-yl)amino)-N-(methyl-d3)nicotinamide] | 442 nM | 
13 | CNC(=O)c1cnc(NC(=O)C2CC2)cc1Nc1csc2c(C)cn(C)c(=O)c12 [Example 188, 6-(Cyclopropanecarboxamido)-4-((5,7-dimethyl-4-oxo-4,5-dihydrothieno[3,2-c]pyridin-3-yl)amino)-N-methylnicotinamide] | 267 nM | 
14 | [2H]C([2H])([2H])NC(=O)c1nnc(NC(=O)C2CC2)cc1Nc1csc2ccn(C)c(=O)c12 [Example 196, 6-(Cyclopropanecarboxamido)-N-(methyl-d3)-4-((5-methyl-4-oxo-4,5-dihydrothieno[3,2-c]pyridin-3-yl)amino)pyridazine-3-carboxamide] | 45.7 nM | 
15 | [2H]C([2H])([2H])NC(=O)c1cnc(NC(=O)C2CC2)cc1Nc1cn(C([2H])([2H])[2H])c2ccn(C(C)C(F)(F)F)c(=O)c12 (stereo not drawn) [Example 199, 6-(Cyclopropanecarboxamido)-N-(methyl-d3)-4-((1-(methyl-d3)-4-oxo-5-(1,1,1-trifluoropropan-2-yl)-4,5-dihydro-1H-pyrrolo[3,2-c]pyridin-3-yl)amino)nicotinamide] | 175 nM | 
16 | CCN1C(=O)C(F)(F)c2ccc(Nc3cc(NC(=O)C4CC4)ncc3C(=O)NC)c(OC)c21 [Example 204, 6-(Cyclopropanecarboxamido)-4-((1-ethyl-3,3-difluoro-7-methoxy-2-oxoindolin-6-yl)amino)-N-methylnicotinamide] | 327 nM | 
17 | [2H]C([2H])([2H])N1Cc2nc(NC(=O)C3CC3)cc(Nc3ccc4cnn(CC)c4c3OC)c2C1=O [Example 210, N-(4-((1-ethyl-7-methoxy-1H-indazol-6-yl)amino)-6-(methyl-d3)-5-oxo-6,7-dihydro-5H-pyrrolo[3,4-b]pyridin-2-yl)cyclopropanecarboxamide] | > 5000 nM | 
18 | [2H]C([2H])([2H])NC(=O)c1cnc(NC(=O)C2CC2)cc1Nc1ccn2ncc(C([2H])([2H])[2H])c2c1OC [Example 220, 6-(Cyclopropanecarboxamido)-4-((4-methoxy-3-(methyl-d3)pyrazolo[1,5-a]pyridin-5-yl)amino)-N-(methyl-d3)nicotinamide] | 541 nM | 
19 | [2H]C([2H])([2H])NC(=O)c1cnc(NC(=O)C2CC2)cc1Nc1cn(CCOC2CC2)c2ccn(CC)c(=O)c12 [Example 221, 6-(Cyclopropanecarboxamido)-4-((1-(2-cyclopropoxyethyl)-5-ethyl-4-oxo-4,5-dihydro-1H-pyrrolo[3,2-c]pyridin-3-yl)amino)-N-(methyl-d3)nicotinamide] | 294 nM | 
20 | [2H]C([2H])([2H])NC(=O)c1cnc(Nc2ccc(F)cn2)cc1Nc1ccn2ncc(C)c2c1OC [Example 222, 6-((5-Fluoropyridin-2-yl)amino)-4-((4-methoxy-3-methylpyrazolo[1,5-a]pyridin-5-yl)amino)-N-(methyl-d3)nicotinamide] | 155 nM | 
21 | [2H]C([2H])([2H])NC(=O)c1cnc(NC(=O)C2CC2)cc1Nc1ccc2onc(CC)c2c1OC [Example 233, 6-(Cyclopropanecarboxamido)-4-((3-ethyl-4-methoxybenzo[d]isoxazol-5-yl)amino)-N-(methyl-d3)nicotinamide] | 3270 nM | 
22 | CCn1ncc2ccc(Nc3ccnc(NC(=O)C4CC4)c3)c(OC)c21 [Example 237, N-(4-((1-ethyl-7-methoxy-1H-indazol-6-yl)amino)pyridin-2-yl)cyclopropanecarboxamide] | 4070 nM | 
23 | [2H]C([2H])([2H])NC(=O)c1cnc(NC(=O)C2(C(F)(F)F)CC2)cc1Nc1ccc2cnn(CC)c2c1OC [Example 238, 4-((1-Ethyl-7-methoxy-1H-indazol-6-yl)amino)-N-(methyl-d3)-6-(1-(trifluoromethyl)cyclopropane-1-carboxamido)nicotinamide] | > 5000 nM | 
24 | CCc1nc2c(Nc3cc(NC(=O)C4CC4)ncc3C(=O)NC)cn(C)c2c(=O)n1C [Example 247, 6-(Cyclopropanecarboxamido)-4-((2-ethyl-3,5-dimethyl-4-oxo-4,5-dihydro-3H-pyrrolo[3,2-d]pyrimidin-7-yl)amino)-N-methylnicotinamide] | > 5000 nM | 
25 | CNC(=O)c1cnc(NC(=O)C2CC2)cc1Nc1ccc2nc3n(c2c1OC)CCC3 [Example 248, 6-(Cyclopropanecarboxamido)-4-((8-methoxy-2,3-dihydro-1H-benzo[d]pyrrolo[1,2-a]imidazol-7-yl)amino)-N-methylnicotinamide] | 1420 nM | 
